Source: PubChem BioAssay (NCI)
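In this assay, cells in 96-well plates receive the compound at five concentrations for 48 hours. Endpoints are linearly interpolated between the surrounding concentrations. GI50: concentration for 50% inhibition of growth. TGI: total growth inhibition.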

Tests used:
Experiment in all cases: DTP human tumour cell line panel, 48 h
SW-620 colon = tested on: SW-620 colon
NCI-H522 lung = tested on: NCI-H522 lung
U251 CNS = tested on: U251 CNS
786-0 renal = tested on: 786-0 renal
UACC-62 melanoma = tested on: UACC-62 melanoma
ACHN renal = tested on: ACHN renal
OVCAR-5 ovarian = tested on: OVCAR-5 ovarian
NCI-H23 lung = tested on: NCI-H23 lung
NCI/ADR-RES ovarian = tested on: NCI/ADR-RES ovarian
T-47D breast = tested on: T-47D breast

Compound	TGI (SW-620 colon) [µM]	TGI (NCI-H522 lung) [µM]	TGI (U251 CNS) [µM]	TGI (786-0 renal) [µM]	TGI (UACC-62 melanoma) [µM]	TGI (ACHN renal) [µM]	TGI (OVCAR-5 ovarian) [µM]	TGI (NCI-H23 lung) [µM]	GI50 (SW-620 colon) [µM]	GI50 (NCI/ADR-RES ovarian) [µM]	TGI (NCI/ADR-RES ovarian) [µM]	GI50 (U251 CNS) [µM]	GI50 (T-47D breast) [µM]	TGI (T-47D breast) [µM]	GI50 (786-0 renal) [µM]	GI50 (UACC-62 melanoma) [µM]	GI50 (ACHN renal) [µM]	GI50 (OVCAR-5 ovarian) [µM]	GI50 (NCI-H23 lung) [µM]	GI50 (NCI-H522 lung) [µM]
COC(=O)/C(C#N)=C1\CCC(O)N1 (stereo not drawn)	> 100	> 100	> 100	> 100	> 100	> 100	> 100	> 100	–	–	–	–	–	–	–	–	–	–	–	–
CN(C)C(=S)/N=c1\ss/c(=N\C(=S)N(C)C)n1-c1ccc(Cl)c(Cl)c1	> 100	> 100	> 100	> 100	> 100	> 100	> 100	> 100	–	–	–	–	–	–	–	–	–	–	–	–
Cc1cc(I)cc(CN(C)CCCN2CCOCC2)c1O	> 100	–	> 100	> 100	30.5	> 100	> 100	> 100	33.5	67.5	> 100	36.3	29.1	> 100	27.6	13.1	> 100	45.3	72.3	–
COC(=O)/C(C)=C/[N+](=O)[O-]	26.8	–	32.5	32.3	32.8	35.5	35.4	41.2	–	–	–	–	–	–	–	–	–	–	–	–
CC1=NN(C(=O)CC(=O)N(C(=O)c2ccccc2Cl)c2ccc(C)cc2)C(=O)C1N=Nc1ccc([N+](=O)[O-])cc1 (stereo not drawn)	> 53.6	> 100	48.9	> 68.5	> 53.7	> 100	> 100	> 100	–	–	–	–	–	–	–	–	–	–	–	–
O=S1OC2(c3ccccc3-c3ccccc32)c2ccccc21 (stereo not drawn)	> 100	> 100	> 100	> 100	> 100	> 100	> 100	> 100	–	–	–	–	–	–	–	–	–	–	–	–
Nc1nc(CCl)nc(Nc2ccccc2)n1	46.3	3.27	15.6	4.35	34.6	66.1	43.4	38.7	–	–	–	–	–	–	–	–	–	–	–	–
O=C(Nc1ccc(-n2cc(-c3ccncc3)c(-c3ccc(Cl)c(O)c3)n2)cc1)Nc1ccc(Cl)c(C(F)(F)F)c1	5.04	–	2.32	3.11	3.44	4.94	8.98	3.43	2.48	1.88	4.83	1.08	2.39	6.54	1.22	1.7	1.78	3.3	1.67	–
Cc1cc(NS(=O)(=O)c2ccc(Nc3c4ccccc4nc4c(C(=O)NCCN(C)C)cccc34)cc2)no1	> 100	4.56	> 100	19.7	14.4	19	> 100	> 100	–	–	–	–	–	–	–	–	–	–	–	–
CC(C)CCCC(C)[C@H]1CCC2[C@H]3C(CC[C@@]21C)[C@@]1(C)CCC=C[C@]12C[C@@H]2[C@@H]3O (stereo partly drawn)	> 100	> 100	> 100	> 100	> 100	> 100	> 100	–	–	–	–	–	–	–	–	–	–	–	–	–
Cc1cc(S(=O)(=O)N/N=C(\Sc2cc(Cl)c(C)cc2S(N)(=O)=O)c2ccc(Cl)cc2)c(Cl)cc1Cl	> 100	> 100	> 100	> 100	> 100	73.9	> 100	67.9	40.4	> 100	> 100	53.1	–	–	42.1	> 100	25.6	> 100	26.7	72.7
COc1ccc(-c2oc3cc(O)c(OC)c(O)c3c(=O)c2OC)cc1O	> 100	7.87	> 100	7.42	> 100	> 100	–	> 100	0.0485	0.0456	> 100	0.0708	0.819	> 100	0.578	0.311	1.52	–	0.443	0.0589
N.N.N.N.[Cl-].[Co+3].[N-]=[N+]=[N-].[N-]=[N+]=[N-]	> 100	> 100	> 100	> 100	> 100	> 100	> 100	> 100	> 100	–	–	> 100	–	–	> 100	> 100	50.5	> 100	> 100	> 100
CCCCOC(=O)NC(=O)c1cn(CCCOC(=O)NCCCCCCNC(=O)OCCCn2cc(C(=O)NC(=O)OCCCC)c(=O)[nH]c2=O)c(=O)[nH]c1=O	> 100	> 100	> 100	> 100	> 100	> 100	> 100	> 100	–	–	–	–	–	–	–	–	–	–	–	–
COc1ccc2[nH]c3c4c(ccc3c2c1)C(=O)C=CC4=O	6.63	3.66	36.5	24.2	36	15	41.5	30.2	–	–	–	–	–	9.75	–	–	–	–	–	–
O=C(CSC(c1ccccc1)c1ccccc1)N/N=C/c1ccc(Cl)cc1Cl	> 100	59.2	67.3	> 100	> 100	66.3	> 100	56.9	42	35.3	> 100	24	–	–	40.1	21.9	26.6	31.6	21.4	12.4
CN(CCCNC(=O)Cc1ccc2ccc3cccc4ccc1c2c34)CCCNc1cc(-c2ccc3ccccc3c2)nc2ccccc12	1.7	–	3.05	2.97	3.46	2.87	3.28	3.18	0.465	1.49	2.96	1.6	2.04	4.19	1.53	1.88	1.42	1.82	1.68	–
